Where two headings read alike, the source gives them in different places.
Legend:
human α1b-AR = target: T1, human α1b-AR (Homo sapiens, UniProt P35368); assay: [3H]prazosin equilibrium competition binding, human α1b-AR expressed in HEK cells
T1 construct: expressed in transfected cells; host or cells: HEK cells
T1 sequence (P35368 1-520): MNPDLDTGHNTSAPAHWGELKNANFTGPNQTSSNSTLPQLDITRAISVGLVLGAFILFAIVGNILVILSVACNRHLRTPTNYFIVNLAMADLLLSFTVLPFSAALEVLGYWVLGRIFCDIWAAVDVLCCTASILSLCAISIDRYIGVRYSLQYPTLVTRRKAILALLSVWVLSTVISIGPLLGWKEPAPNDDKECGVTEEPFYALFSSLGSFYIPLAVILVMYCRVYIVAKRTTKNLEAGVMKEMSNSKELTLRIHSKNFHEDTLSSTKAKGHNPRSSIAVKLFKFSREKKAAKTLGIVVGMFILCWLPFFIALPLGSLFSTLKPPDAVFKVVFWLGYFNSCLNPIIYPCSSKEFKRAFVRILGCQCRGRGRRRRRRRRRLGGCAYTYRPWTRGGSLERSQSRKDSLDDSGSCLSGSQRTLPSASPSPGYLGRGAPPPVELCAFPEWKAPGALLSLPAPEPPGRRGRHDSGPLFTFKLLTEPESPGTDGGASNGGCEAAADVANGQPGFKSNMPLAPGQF

human α1a-AR = target: T2, human α1a-AR (Homo sapiens, UniProt P35348); assay: [3H]prazosin equilibrium competition binding, human α1a-AR expressed in HEK cells
T2 construct: expressed in transfected cells; host or cells: HEK cells
T2 sequence (P35348 1-466): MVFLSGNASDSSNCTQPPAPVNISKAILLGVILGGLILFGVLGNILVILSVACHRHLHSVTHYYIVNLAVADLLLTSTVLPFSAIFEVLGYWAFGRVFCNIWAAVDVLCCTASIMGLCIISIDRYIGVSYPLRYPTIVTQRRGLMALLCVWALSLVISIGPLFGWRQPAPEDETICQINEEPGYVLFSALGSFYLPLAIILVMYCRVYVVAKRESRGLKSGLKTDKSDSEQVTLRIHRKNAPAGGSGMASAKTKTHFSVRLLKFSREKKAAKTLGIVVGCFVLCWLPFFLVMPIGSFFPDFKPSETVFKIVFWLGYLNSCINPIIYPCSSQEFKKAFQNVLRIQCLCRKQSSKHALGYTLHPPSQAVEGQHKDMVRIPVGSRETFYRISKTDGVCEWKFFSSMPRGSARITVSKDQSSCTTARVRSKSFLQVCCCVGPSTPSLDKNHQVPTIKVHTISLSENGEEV

human α2a-AR [1] = target: T3, human α2a-AR (Homo sapiens, UniProt P08913); assay: Reversal of medetomidine mediated inhibition of forskolin-induced cAMP (6 CRE-LUC reporter), CHO cells expressing α2a-AR; format: cell-based; settings: reversal of medetomidine (10 nM) effect on forskolin (5 μM) cAMP response; mean ± SEM of n=3-4; read-out: Effective Concentration-50 (nM ± SEM) α2a-AR
T3 construct: expressed in transfected cells
T3 sequence (P08913 1-465): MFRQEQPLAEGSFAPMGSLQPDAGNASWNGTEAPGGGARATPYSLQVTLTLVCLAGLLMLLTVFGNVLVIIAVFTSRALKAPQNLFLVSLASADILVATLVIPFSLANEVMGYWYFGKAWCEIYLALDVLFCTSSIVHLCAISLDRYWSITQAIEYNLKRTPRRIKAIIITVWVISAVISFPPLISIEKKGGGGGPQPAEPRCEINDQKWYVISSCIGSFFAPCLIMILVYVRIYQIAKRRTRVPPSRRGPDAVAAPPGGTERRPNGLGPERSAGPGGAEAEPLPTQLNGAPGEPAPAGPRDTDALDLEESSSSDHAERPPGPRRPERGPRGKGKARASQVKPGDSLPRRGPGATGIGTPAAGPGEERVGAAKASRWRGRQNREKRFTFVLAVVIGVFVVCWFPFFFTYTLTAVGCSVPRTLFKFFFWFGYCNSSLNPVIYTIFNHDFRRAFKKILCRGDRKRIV
Description: (§1) The changes in cAMP levels were assessed by luciferase activities using a 6 CRE-LUC reporter gene bioassay.

human α2c-AR [2] = target: T4, human α2c-AR (Homo sapiens, UniProt P18825); assay: [3H]Rauwolscine equilibrium competition binding, human α2c-AR expressed in CHO cells
T4 construct: expressed in transfected cells
T4 sequence (P18825 1-462): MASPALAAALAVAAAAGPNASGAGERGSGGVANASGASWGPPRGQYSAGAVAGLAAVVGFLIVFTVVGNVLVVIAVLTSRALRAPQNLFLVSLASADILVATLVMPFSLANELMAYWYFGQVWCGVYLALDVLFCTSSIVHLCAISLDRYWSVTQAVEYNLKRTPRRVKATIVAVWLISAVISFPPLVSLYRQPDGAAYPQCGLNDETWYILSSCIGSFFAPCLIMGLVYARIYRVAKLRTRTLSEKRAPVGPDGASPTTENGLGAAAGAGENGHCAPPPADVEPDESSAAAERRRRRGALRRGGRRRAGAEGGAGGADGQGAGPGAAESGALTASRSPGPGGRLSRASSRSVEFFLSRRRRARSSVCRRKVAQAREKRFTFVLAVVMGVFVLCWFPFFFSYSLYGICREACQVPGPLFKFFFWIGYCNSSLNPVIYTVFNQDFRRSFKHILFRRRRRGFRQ

human α1d-AR = target: T5, human α1d-AR (Homo sapiens, UniProt P25100); assay: [3H]prazosin equilibrium competition binding, human α1d-AR expressed in HEK cells
T5 construct: expressed in transfected cells; host or cells: HEK cells
T5 sequence (P25100 1-572): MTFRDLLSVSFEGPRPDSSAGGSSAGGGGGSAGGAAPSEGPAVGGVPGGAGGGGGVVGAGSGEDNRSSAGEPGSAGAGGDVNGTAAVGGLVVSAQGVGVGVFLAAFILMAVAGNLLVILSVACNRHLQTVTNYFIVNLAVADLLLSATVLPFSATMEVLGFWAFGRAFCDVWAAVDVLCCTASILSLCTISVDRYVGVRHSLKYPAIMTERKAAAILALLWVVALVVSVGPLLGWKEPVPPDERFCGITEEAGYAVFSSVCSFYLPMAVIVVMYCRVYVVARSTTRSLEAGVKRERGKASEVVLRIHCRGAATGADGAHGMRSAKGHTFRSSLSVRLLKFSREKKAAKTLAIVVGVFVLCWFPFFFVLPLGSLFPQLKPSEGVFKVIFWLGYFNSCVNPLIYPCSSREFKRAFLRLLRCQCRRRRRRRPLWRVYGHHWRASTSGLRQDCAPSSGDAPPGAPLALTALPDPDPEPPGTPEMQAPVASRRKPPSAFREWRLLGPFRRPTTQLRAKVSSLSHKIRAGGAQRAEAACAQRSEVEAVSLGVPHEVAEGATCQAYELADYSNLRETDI

human α2a-AR [3] = target: T3, human α2a-AR; assay: [3H]Rauwolscine equilibrium competition binding, human α2a-AR expressed in CHO cells; settings: human α2a-AR in CHO cells
human α2c-AR [4] = target: T4, human α2c-AR; assay: Reversal of medetomidine mediated inhibition of forskolin-induced cAMP (6 CRE-LUC reporter), CHO cells expressing α2c-AR; format: cell-based
Description: as §1

human α2b-AR = target: T6, human α2b-AR (Homo sapiens, UniProt P18089); assay: [3H]Rauwolscine equilibrium competition binding, human α2b-AR expressed in CHO cells
T6 construct: expressed in transfected cells
T6 sequence (P18089 1-450): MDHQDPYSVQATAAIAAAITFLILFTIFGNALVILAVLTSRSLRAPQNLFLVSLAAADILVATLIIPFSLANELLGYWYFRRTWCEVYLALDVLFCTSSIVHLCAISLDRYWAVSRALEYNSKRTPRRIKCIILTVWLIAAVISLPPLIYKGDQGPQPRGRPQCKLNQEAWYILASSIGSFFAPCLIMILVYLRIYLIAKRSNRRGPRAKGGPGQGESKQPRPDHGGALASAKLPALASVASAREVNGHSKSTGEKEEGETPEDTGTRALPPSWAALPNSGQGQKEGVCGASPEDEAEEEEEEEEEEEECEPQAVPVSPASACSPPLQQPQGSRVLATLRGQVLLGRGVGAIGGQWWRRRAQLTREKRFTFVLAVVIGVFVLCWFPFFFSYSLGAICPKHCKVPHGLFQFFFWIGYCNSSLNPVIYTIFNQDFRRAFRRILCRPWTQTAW

## O=C(NCCCNC(=O)[C@@H]1[C@H]2C[C@H]3c4[nH]c5ccccc5c4CCN3C[C@@H]2CC[C@@H]1O)[C@@H]1[C@H]2C[C@H]3c4[nH]c5ccccc5c4CCN3C[C@@H]2CC[C@@H]1O [Compound 3b]
Human α1b-AR
  Ki: 5750 nM
Human α1a-AR
  Ki: 17000 nM
Human α2a-AR [1]
  EC50: 660 ± 210 nM
Human α2c-AR [2]
  Ki: 5.75 nM
Human α2c-AR [2]; Table 3, CHO cells, [3H]rauwolscine, mean ± SEM of n = 4-6
  pKi α2c-AR: 8.24 ± 0.07
Human α2c-AR [2]; from Table 3
  binding affinity for α2c-AR greater than on the α1-AR subtypes: ≥ 1000 fold
Human α1d-AR
  Ki: 7760 nM
Human α2a-AR [3]; Table 2, mean ± SEM of n = 4-6, read-out: pKi α2a-AR (converted)
  Ki: 182 nM
Human α2a-AR [3]; [3H]rauwolscine 2.54 nM, mean ± SEM of four to nine experiments, read-out: Ki = SEM (nM) α2a-AR
  Ki: 52 ± 3.2 nM
Human α2c-AR [4]
  EC50: 15.8 ± 5.2 nM
Human α2c-AR [4]; from Table 4
  more potent at inhibiting the action of medetomidine on α2c-AR versus α2a-AR: 42 fold
Human α2b-AR; Table 2, mean ± SEM of n = 4-6, read-out: pKi α2b-AR (converted)
  Ki: 2040 nM
Human α2b-AR; [3H]rauwolscine 2.54 nM, mean ± SEM of four to nine experiments, read-out: Ki = SEM (nM) α2b-AR
  Ki: 990 ± 85.2 nM

Reference: patent publication US6638943B2 (The University of Tennessee Research Foundation, priority 2001, dated 2003)
